Where two headings read alike, the source gives them in different places.

This note sets out measurements from patent US12129246B1, “Hydroquinazoline derivatives for the treatment of a disease or disorder” (Novartis AG, priority 2023, dated 2024).

The target in one assay is monkey NPR1 (Macaca fascicularis, UniProt A0A7N9DBT9). Put plainly: Cellular cGMP production assay, monkey NPR1 expressing CHO-K1 cells (CisBio HTRF). To be noted: for Monkey NPR1 Amax (% of ANP): maximum cGMP production as percentage of the maximum cGMP produced with ANP. It counts as cell-based. The method in brief: (§1)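 CHO-K1 cells expressing human or cynomolgus NPR1 treated with compound (12-point, 3-fold dilutions from 30 μM top) in PBS+0.1% BSA with 1 mM IBMX, 30 min at 37° C. After lysis, cGMP quantified by HTRF competition (cGMP-d2/anti-cGMP-cryptate, 1 h RT, 665 nm emission) against a calibrator standard curve.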
Sequence of monkey NPR1 (A0A7N9DBT9 entry or part of it): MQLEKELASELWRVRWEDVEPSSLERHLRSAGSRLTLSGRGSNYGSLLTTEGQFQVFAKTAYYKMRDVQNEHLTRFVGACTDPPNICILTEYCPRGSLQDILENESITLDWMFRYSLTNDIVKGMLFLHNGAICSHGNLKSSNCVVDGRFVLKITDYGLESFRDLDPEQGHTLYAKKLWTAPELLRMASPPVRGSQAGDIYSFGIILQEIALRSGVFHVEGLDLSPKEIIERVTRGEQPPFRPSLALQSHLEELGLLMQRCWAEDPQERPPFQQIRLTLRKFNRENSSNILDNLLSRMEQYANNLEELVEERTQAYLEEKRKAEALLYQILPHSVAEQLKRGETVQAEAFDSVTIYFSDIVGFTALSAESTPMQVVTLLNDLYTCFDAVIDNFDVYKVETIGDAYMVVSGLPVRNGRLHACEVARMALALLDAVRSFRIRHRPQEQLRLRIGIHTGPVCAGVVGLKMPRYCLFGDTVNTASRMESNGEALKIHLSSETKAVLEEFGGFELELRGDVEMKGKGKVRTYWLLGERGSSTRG

The target of a further assay is T1, human NPR1 (Homo sapiens, UniProt P16066).
T1 construct: host or cells: CHO-K1
T1 sequence (P16066 33-1061): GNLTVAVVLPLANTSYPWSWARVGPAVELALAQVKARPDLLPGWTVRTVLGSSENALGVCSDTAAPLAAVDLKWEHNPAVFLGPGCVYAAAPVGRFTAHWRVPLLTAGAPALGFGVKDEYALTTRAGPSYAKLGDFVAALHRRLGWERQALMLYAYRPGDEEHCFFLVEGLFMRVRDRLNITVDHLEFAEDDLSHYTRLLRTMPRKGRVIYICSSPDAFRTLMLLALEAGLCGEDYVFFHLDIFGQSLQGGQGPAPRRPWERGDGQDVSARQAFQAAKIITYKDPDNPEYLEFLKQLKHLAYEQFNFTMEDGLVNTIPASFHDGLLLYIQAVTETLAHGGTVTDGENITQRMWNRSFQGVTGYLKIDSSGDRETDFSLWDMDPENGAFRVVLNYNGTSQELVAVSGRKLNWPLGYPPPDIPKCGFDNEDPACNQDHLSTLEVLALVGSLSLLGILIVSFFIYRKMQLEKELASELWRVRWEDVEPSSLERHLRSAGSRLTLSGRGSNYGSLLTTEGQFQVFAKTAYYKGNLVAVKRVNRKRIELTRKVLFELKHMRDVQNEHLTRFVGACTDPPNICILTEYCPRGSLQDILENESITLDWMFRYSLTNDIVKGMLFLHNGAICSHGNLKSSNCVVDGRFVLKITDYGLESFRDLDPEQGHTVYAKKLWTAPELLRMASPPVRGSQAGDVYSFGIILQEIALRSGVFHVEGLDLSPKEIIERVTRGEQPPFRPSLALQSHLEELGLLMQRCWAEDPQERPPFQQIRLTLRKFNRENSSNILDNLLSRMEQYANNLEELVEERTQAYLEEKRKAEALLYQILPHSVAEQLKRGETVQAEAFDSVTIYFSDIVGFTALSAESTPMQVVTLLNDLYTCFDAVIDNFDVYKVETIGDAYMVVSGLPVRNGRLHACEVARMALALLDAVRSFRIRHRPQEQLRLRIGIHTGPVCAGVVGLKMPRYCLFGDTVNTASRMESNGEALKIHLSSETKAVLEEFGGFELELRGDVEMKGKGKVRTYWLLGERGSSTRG
Put plainly: Cellular cGMP production assay, human NPR1 expressing CHO-K1 cells (CisBio HTRF). It counts as cell-based. Particulars: for AC50: cGMP production, 30 min at 37° C., 12-point dose-response from 30 μM; for Human NPR1 Amax (% of ANP): maximum cGMP production as percentage of the maximum cGMP produced with ANP. The method in brief:
as §1

[1] abbreviates: cGMP production, monkey NPR1 CHO-K1 cells, 30 min at 37° C., 12-point dose-response from 30 μM, read-out: Monkey NPR1 AC50.

Compound `CC[C@H]([C@H]1CC[C@H](C(=O)O)CC1)N(C)c1nc2c(c(N[C@@H](CN3C[C@H]4C[C@@H](C3)C4O)c3cnn(C)c3)n1)C[C@H](c1ccccc1)CC2` (stereo partly drawn) [Compound 138, (1R,4r)-4-((1R)-1-(((6R)-4-(((1R)-2-((1R,5S)-6-hydroxy-3-azabicyclo[3.1.1]heptan-3-yl)-1-(1-methyl-1H-pyrazol-4-yl)ethyl)amino)-6-phenyl-5,6,7,8-tetrahydroquinazolin-2-yl)(methyl)amino)propyl)cyclohexane-1-carboxylic acid] registered an AC50 at monkey NPR1 of 734 nM. The “Monkey NPR1 Amax (% of ANP)” value on monkey NPR1 (monkey NPR1 CHO-K1 cells) is 101.929 % of ANP. Further, at human NPR1, half-maximal activity (AC50) was put at 852 nM and the “Human NPR1 Amax (% of ANP)” value is reported as 105.993 % of ANP.

For the compound `CC[C@H]([C@H]1CC[C@H](C(=O)O)CC1)N(C)c1nc2c(c(N[C@@H](CN3C4CCCC3CCC4)c3cnn(CC)c3)n1)C[C@H](c1cccc(F)c1)CC2` [Compound 18, (1R,4r)-4-((R)-1-(((R)-4-(((R)-2-((1S,5S)-9-azabicyclo[3.3.1]nonan-9-yl)-1-(1-ethyl-1H-pyrazol-4-yl)ethyl)amino)-6-(3-fluorophenyl)-5,6,7,8-tetrahydroquinazolin-2-yl)(methyl)amino)propyl)cyclohexane-1-carboxylic acid], on monkey NPR1, the activity was half-maximal at 71 nM (AC50). In addition, the “Monkey NPR1 Amax (% of ANP)” value at monkey NPR1 (monkey NPR1 CHO-K1 cells) is given as 100.607 % of ANP. On human NPR1, half-maximal activity (AC50) was put at 107 nM and the “Human NPR1 Amax (% of ANP)” value is 97.609 % of ANP.

With `CC[C@@H](N(C)c1nc2c(c(N[C@@H](CN3CCC[C@H](C)C3)c3cnn(C)c3)n1)C[C@H](c1cccc(F)c1)CC2)C12CC(C(=O)O)(C1)C2` [Compound 9, 3-((R)-1-(((R)-6-(3-fluorophenyl)-4-(((R)-1-(1-methyl-1H-pyrazol-4-yl)-2-((S)-3-methylpiperidin-1-yl)ethyl)amino)-5,6,7,8-tetrahydroquinazolin-2-yl)(methyl)amino)propyl)bicyclo[1.1.1]pentane-1-carboxylic acid], the AC50 on monkey NPR1 (setting [1]) stood at 45 nM; on human NPR1, 88 nM. The “Monkey NPR1 Amax (% of ANP)” value on monkey NPR1 (monkey NPR1 CHO-K1 cells) was 95.667 % of ANP. Further, on human NPR1, the “Human NPR1 Amax (% of ANP)” value is 95.056 % of ANP.

Take `CC[C@@H](Nc1nc2c(c(N[C@@H](CN3CCCCC3)c3cnn(C(C)C)c3)n1)C[C@H](c1ccccc1)CC2)[C@H]1CC[C@H](C(=O)O)CC1` [Compound 100, (1R,4r)-4-((R)-1-(((R)-4-(((R)-1-(1-isopropyl-1H-pyrazol-4-yl)-2-(piperidin-1-yl)ethyl)amino)-6-phenyl-5,6,7,8-tetrahydroquinazolin-2-yl)amino)propyl)cyclohexane-1-carboxylic acid]: the AC50 at monkey NPR1 (setting [1]) was 161 nM. Further, the “Monkey NPR1 Amax (% of ANP)” value at monkey NPR1 (monkey NPR1 CHO-K1 cells) is 105.588 % of ANP. Moreover, at human NPR1, the AC50 was determined as 354 nM and the “Human NPR1 Amax (% of ANP)” value is reported as 92.848 % of ANP.

Take `CC[C@@H](Nc1nc2c(c(N[C@@H](CN3CCC[C@@H](C)C3)c3cnn(C)c3)n1)C[C@H](c1ccccc1)CC2)[C@H]1CC[C@H](C(=O)O)CC1` [Compound 84, (1R,4r)-4-((R)-1-(((R)-4-(((R)-1-(1-methyl-1H-pyrazol-4-yl)-2-((R)-3-methylpiperidin-1-yl)ethyl)amino)-6-phenyl-5,6,7,8-tetrahydroquinazolin-2-yl)amino)propyl)cyclohexane-1-carboxylic acid]: the AC50 at monkey NPR1 (setting [1]) is 191 nM; at human NPR1, 284 nM. Further, the “Monkey NPR1 Amax (% of ANP)” value at monkey NPR1 (monkey NPR1 CHO-K1 cells) is reported as 102.883 % of ANP. Moreover, the “Human NPR1 Amax (% of ANP)” value on human NPR1 is 100.223 % of ANP.

As for `CC[C@@H](Nc1nc2c(c(N[C@@H](CN3CCCCCC3)c3cnn(C)c3)n1)C[C@H](c1cccc(F)c1)CC2)[C@H]1CC[C@H](C(=O)O)CC1` [Compound 3, (1R,4r)-4-((R)-1-(((R)-4-(((R)-2-(azepan-1-yl)-1-(1-methyl-1H-pyrazol-4-yl)ethyl)amino)-6-(3-fluorophenyl)-5,6,7,8-tetrahydroquinazolin-2-yl)amino)propyl)cyclohexane-1-carboxylic acid], the concentration at half-maximal activity (AC50) at monkey NPR1 (setting [1]) amounted to 45 nM; at human NPR1 it was 66 nM. The “Monkey NPR1 Amax (% of ANP)” value at monkey NPR1 (monkey NPR1 CHO-K1 cells) is recorded as 107.571 % of ANP. Moreover, the “Human NPR1 Amax (% of ANP)” value on human NPR1 is 105.403 % of ANP.

As for `CC[C@H]([C@H]1CC[C@H](C(=O)O)CC1)N(C)c1nc2c(c(N[C@@H](CN3CCC[C@H](C)C3)c3cnn(C)c3)n1)C[C@H](c1ccccc1)CC2` [Compound 40, (1R,4r)-4-((R)-1-(methyl((R)-4-(((R)-1-(1-methyl-1H-pyrazol-4-yl)-2-((S)-3-methylpiperidin-1-yl)ethyl)amino)-6-phenyl-5,6,7,8-tetrahydroquinazolin-2-yl)amino)propyl)cyclohexane-1-carboxylic acid], on monkey NPR1 (setting [1]), the AC50 amounted to 127 nM. The “Monkey NPR1 Amax (% of ANP)” value at monkey NPR1 (monkey NPR1 CHO-K1 cells) was 105.150 % of ANP. Besides, at human NPR1, the activity was half-maximal at 166 nM (AC50) and the “Human NPR1 Amax (% of ANP)” value is on record as 102.476 % of ANP.

Turning to `CC[C@@H](N(C)c1nc2c(c(N[C@@H](CN3CCC[C@H](C)C3)c3ccnn3C)n1)C[C@H](c1cccc(F)c1)CC2)C12CC(C(=O)O)(C1)C2` [Compound 155, 3-((R)-1-(((R)-6-(3-fluorophenyl)-4-(((S)-1-(1-methyl-1H-pyrazol-5-yl)-2-((S)-3-methylpiperidin-1-yl)ethyl)amino)-5,6,7,8-tetrahydroquinazolin-2-yl)(methyl)amino)propyl)bicyclo[1.1.1]pentane-1-carboxylic acid], the concentration at half-maximal activity (AC50) on monkey NPR1 (setting [1]) was 648 nM. Besides, the “Monkey NPR1 Amax (% of ANP)” value at monkey NPR1 (monkey NPR1 CHO-K1 cells) is 95.840 % of ANP. For the same compound, at human NPR1, the AC50 stood at 1290 nM and the “Human NPR1 Amax (% of ANP)” value is reported as 97.313 % of ANP.

As for `CC[C@H]([C@H]1CC[C@H](C(=O)O)CC1)N(C)c1nc2c(c(N[C@@H](CN3C4CCC3CC4)c3cnn(C)c3)n1)C[C@](C)(c1ccccc1)CC2` [Compound 70, (1R,4r)-4-((R)-1-(((R)-4-(((R)-2-(7-azabicyclo[2.2.1]heptan-7-yl)-1-(1-methyl-1H-pyrazol-4-yl)ethyl)amino)-6-methyl-6-phenyl-5,6,7,8-tetrahydroquinazolin-2-yl)(methyl)amino)propyl)cyclohexane-1-carboxylic acid], the AC50 came to 230 nM at monkey NPR1 and 234 nM on human NPR1. Besides, the “Monkey NPR1 Amax (% of ANP)” value on monkey NPR1 (monkey NPR1 CHO-K1 cells) is reported as 100.673 % of ANP. On human NPR1, the “Human NPR1 Amax (% of ANP)” value is 97.399 % of ANP.

For the compound `CC[C@@H](Nc1nc2c(c(N[C@@H](CN3CCCCC3)c3cnn(CC)c3)n1)C[C@H](c1ccccc1)CC2)[C@H]1CC[C@H](C(=O)O)CC1` [Compound 45, (1R,4r)-4-((R)-1-(((R)-4-(((R)-1-(1-ethyl-1H-pyrazol-4-yl)-2-(piperidin-1-yl)ethyl)amino)-6-phenyl-5,6,7,8-tetrahydroquinazolin-2-yl)amino)propyl)cyclohexane-1-carboxylic acid], the AC50 at monkey NPR1 (setting [1]) amounted to 125 nM; at human NPR1 it was 175 nM. In addition, the “Monkey NPR1 Amax (% of ANP)” value on monkey NPR1 (monkey NPR1 CHO-K1 cells) is given as 99.911 % of ANP. Besides, the “Human NPR1 Amax (% of ANP)” value on human NPR1 is listed as 98.472 % of ANP.

Turning to `O=C(O)[C@H]1CC[C@H](C(CC2CC2)Nc2nc3c(c(N[C@@H](CN4CCCC4)c4ccccc4)n2)CC(c2ccccc2)CC3)CC1` (stereo partly drawn) [Compound 139, (1R,4r)-4-((1R)-2-cyclopropyl-1-((6-phenyl-4-(((R)-1-phenyl-2-(pyrrolidin-1-yl)ethyl)amino)-5,6,7,8-tetrahydroquinazolin-2-yl)amino)ethyl)cyclohexane-1-carboxylic acid], the AC50 on monkey NPR1 (setting [1]) is 696 nM. On monkey NPR1 (monkey NPR1 CHO-K1 cells), the “Monkey NPR1 Amax (% of ANP)” value is on record as 111.911 % of ANP. In addition, at human NPR1, the activity was half-maximal at 876 nM (AC50) and the “Human NPR1 Amax (% of ANP)” value was 105.089 % of ANP.

For the compound `CC[C@H]([C@H]1CC[C@H](C(=O)O)CC1)N(C)c1nc2c(c(N[C@@H](CN3CCC[C@H](C)C3)c3cnn(C)c3)n1)C[C@H](c1ccccc1F)CC2` [Compound 48, (1R,4r)-4-((R)-1-(((R)-6-(2-fluorophenyl)-4-(((R)-1-(1-methyl-1H-pyrazol-4-yl)-2-((S)-3-methylpiperidin-1-yl)ethyl)amino)-5,6,7,8-tetrahydroquinazolin-2-yl)(methyl)amino)propyl)cyclohexane-1-carboxylic acid], the AC50 is 101 nM at monkey NPR1 (setting [1]) and 183 nM at human NPR1. Moreover, on monkey NPR1 (monkey NPR1 CHO-K1 cells), the “Monkey NPR1 Amax (% of ANP)” value is given as 101.062 % of ANP. Besides, the “Human NPR1 Amax (% of ANP)” value on human NPR1 is on record as 106.036 % of ANP.
